In ChEMBL document CHEMBL5579820, “New insights into butyrylcholinesterase: Pharmaceutical applications, selective inhibitors and multitarget-directed ligands” (Eur J Med Chem, 2024):
pIC50, pKi: −log10 of the molar value.

How the values were obtained:
[1] = Selectivity index, ratio of IC50 for human AChE to IC50 for equine BChE using butyrylthiocholine as substrate
[2] = Selectivity index, ratio of IC50 for electric eel AChE to IC50 for equine serum BuChE
Acetylcholinesterase [3] = molecular target: T1, Acetylcholinesterase (Electrophorus electricus, UniProt O42275); experiment: Inhibition of electric eel AChE
T1 sequence (O42275 whole entry): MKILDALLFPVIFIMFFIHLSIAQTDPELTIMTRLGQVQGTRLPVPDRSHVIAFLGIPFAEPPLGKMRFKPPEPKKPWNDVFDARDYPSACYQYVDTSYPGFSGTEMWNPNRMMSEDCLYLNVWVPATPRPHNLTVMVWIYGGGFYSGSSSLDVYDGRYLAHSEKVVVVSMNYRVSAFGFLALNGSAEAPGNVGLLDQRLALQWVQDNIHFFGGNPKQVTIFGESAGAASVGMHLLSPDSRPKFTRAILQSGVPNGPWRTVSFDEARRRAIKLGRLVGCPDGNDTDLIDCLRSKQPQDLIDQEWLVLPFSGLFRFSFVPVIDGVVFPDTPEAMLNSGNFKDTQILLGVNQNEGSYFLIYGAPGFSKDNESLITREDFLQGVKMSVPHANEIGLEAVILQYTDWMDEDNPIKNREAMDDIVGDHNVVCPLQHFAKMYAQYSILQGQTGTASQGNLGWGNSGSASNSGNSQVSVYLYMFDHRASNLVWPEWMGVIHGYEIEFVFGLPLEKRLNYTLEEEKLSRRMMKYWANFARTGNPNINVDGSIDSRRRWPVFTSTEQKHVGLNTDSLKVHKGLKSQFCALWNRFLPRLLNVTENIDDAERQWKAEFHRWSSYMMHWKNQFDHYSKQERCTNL

Cholinesterase [4] = molecular target: T2, Cholinesterase (Equus caballus, UniProt P81908); experiment: Inhibition of equine BuChE
T2 sequence (P81908 whole entry, the tested form may be a part): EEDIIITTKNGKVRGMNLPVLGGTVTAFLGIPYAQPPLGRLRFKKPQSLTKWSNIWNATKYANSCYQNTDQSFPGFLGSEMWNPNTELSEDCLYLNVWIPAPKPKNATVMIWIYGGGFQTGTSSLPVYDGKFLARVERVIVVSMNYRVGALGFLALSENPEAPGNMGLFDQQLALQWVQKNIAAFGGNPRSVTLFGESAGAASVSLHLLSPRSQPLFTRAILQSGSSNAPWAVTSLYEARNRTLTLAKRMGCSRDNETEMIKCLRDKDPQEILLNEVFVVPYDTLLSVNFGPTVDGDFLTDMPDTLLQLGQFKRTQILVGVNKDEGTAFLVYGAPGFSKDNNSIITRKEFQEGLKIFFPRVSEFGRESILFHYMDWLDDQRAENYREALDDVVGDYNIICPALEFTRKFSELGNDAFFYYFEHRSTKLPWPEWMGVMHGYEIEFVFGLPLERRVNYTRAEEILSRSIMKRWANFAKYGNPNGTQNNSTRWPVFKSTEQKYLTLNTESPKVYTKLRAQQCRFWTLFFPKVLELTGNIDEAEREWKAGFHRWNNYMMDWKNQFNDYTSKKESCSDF

[5] = molecular target: Amyloid-beta precursor protein (Homo sapiens) (UniProt P05067); experiment: Inhibition of self induced amyloid-beta aggregation (1 to 42 residues) (unknown origin) at 20 uM by ThT fluorescence based spectrofluorimetric analysis relative to control
Amyloid-beta precursor protein (Homo sapiens), sequence (P05067 whole entry, the tested form may be a part): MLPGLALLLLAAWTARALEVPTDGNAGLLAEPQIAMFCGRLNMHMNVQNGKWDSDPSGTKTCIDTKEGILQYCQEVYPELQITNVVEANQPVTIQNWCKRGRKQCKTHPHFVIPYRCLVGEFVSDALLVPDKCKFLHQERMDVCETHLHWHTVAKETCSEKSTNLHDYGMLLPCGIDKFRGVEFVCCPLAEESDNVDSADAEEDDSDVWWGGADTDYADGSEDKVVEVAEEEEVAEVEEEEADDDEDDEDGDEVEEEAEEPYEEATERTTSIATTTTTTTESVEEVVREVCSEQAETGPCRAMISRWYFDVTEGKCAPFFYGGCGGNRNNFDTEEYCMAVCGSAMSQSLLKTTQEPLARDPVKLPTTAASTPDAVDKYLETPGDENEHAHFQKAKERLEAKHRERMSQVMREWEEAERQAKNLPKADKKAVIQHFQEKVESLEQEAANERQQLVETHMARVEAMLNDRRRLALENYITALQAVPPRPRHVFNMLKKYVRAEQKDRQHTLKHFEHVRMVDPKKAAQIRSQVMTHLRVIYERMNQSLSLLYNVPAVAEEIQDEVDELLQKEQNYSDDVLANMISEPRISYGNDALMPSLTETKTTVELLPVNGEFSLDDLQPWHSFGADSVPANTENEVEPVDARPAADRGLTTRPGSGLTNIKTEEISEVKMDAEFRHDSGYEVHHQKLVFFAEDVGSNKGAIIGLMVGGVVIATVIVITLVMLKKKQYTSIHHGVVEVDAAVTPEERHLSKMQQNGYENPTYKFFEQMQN

Acetylcholinesterase [6] = molecular target: T3, Acetylcholinesterase (Homo sapiens, UniProt P22303); experiment: Inhibition of human AChE using acetylthiocholine iodide as substrate after 15 mins by Ellman's method
T3 sequence (P22303 whole entry): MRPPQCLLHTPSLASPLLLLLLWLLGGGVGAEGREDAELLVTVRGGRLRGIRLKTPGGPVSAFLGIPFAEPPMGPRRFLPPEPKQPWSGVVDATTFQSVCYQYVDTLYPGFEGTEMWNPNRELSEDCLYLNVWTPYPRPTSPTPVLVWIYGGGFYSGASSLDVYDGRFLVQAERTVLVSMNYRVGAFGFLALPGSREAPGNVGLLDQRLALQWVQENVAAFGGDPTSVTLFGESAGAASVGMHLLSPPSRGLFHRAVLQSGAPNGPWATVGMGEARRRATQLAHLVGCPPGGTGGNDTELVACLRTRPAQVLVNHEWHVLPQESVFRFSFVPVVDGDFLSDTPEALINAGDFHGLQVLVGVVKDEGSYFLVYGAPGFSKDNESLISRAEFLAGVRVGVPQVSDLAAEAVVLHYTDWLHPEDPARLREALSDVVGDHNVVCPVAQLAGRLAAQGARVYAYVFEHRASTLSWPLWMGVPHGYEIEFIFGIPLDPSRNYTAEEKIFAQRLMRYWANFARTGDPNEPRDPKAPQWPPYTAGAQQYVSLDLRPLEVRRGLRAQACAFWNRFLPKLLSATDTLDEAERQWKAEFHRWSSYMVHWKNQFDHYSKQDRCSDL

Cholinesterase [7] = molecular target: T4, Cholinesterase (Homo sapiens, UniProt P06276); experiment: Inhibition of BChE (unknown origin)
T4 sequence (P06276 whole entry): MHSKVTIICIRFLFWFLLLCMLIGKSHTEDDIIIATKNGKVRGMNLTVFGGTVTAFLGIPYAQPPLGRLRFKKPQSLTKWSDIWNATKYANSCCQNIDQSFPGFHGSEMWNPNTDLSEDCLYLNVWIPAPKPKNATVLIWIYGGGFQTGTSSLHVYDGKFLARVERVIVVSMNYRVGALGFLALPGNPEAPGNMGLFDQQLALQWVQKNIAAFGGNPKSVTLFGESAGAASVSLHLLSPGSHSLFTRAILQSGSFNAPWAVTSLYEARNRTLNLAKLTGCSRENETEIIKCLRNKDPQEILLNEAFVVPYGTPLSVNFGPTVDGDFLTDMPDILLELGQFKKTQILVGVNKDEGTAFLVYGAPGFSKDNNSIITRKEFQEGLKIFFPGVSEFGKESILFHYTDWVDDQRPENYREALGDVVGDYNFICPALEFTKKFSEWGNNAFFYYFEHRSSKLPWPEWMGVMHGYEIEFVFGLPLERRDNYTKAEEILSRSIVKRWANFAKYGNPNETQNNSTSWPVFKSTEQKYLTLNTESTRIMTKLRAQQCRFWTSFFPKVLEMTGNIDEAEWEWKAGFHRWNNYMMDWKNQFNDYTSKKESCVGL

Cholinesterase [8] = molecular target: T2, Cholinesterase; experiment: Inhibition of equine serum BuChE by Ellman's method
Acetylcholinesterase [9] = molecular target: T1, Acetylcholinesterase; experiment: Inhibition of electric eel AChE using acetylthiocholine iodide as substrate after 60 mins by Ellman's method
[10] = Selectivity index, ratio of IC50 for human erythrocyte AChE to IC50 for equine BuChE
Cholinesterase [11] = molecular target: T4, Cholinesterase
Acetylcholinesterase [12] = molecular target: T3, Acetylcholinesterase; experiment: Inhibition of human AChE at 15 uM relative to control
[13] = molecular target: Cholinesterase (Equus caballus) (UniProt P81908); experiment: Inhibition of equine BChE at 100 uM by Ellman's method relative to control
Cholinesterase (Equus caballus), sequence (P81908 whole entry): as the sequence (P81908 whole entry, the tested form may be a part) above

[14] = molecular target: Acetylcholinesterase (Electrophorus electricus) (UniProt O42275); experiment: Inhibition of electric eel AChE using acetylthiocholine iodide as substrate at 50 uM by Ellman's method relative to control
Acetylcholinesterase (Electrophorus electricus), sequence (O42275 24-633 limits assumed): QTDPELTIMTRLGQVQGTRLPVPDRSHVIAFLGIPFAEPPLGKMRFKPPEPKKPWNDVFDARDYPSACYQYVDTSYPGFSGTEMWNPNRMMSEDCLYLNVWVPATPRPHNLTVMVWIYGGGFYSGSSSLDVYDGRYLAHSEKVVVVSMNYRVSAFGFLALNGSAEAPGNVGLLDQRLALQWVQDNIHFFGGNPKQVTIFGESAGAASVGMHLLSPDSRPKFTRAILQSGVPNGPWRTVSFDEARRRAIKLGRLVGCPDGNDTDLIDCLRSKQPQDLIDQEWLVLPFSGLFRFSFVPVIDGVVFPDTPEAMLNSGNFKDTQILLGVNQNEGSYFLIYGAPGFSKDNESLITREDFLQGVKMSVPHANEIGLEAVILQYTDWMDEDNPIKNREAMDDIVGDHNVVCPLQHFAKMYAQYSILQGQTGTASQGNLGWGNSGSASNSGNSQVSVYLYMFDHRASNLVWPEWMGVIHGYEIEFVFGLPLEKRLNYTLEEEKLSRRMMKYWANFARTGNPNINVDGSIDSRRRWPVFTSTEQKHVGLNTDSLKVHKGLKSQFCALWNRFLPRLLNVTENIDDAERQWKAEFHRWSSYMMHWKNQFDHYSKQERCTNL

Acetylcholinesterase [15] = molecular target: T3, Acetylcholinesterase; experiment: Inhibition of human AChE by Ellman's method
[16] = molecular target: T5, Protein deacetylase HDAC6 (Homo sapiens, UniProt Q9UBN7); experiment: Inhibition of HDAC6 (unknown origin)
T5 sequence (Q9UBN7 whole entry): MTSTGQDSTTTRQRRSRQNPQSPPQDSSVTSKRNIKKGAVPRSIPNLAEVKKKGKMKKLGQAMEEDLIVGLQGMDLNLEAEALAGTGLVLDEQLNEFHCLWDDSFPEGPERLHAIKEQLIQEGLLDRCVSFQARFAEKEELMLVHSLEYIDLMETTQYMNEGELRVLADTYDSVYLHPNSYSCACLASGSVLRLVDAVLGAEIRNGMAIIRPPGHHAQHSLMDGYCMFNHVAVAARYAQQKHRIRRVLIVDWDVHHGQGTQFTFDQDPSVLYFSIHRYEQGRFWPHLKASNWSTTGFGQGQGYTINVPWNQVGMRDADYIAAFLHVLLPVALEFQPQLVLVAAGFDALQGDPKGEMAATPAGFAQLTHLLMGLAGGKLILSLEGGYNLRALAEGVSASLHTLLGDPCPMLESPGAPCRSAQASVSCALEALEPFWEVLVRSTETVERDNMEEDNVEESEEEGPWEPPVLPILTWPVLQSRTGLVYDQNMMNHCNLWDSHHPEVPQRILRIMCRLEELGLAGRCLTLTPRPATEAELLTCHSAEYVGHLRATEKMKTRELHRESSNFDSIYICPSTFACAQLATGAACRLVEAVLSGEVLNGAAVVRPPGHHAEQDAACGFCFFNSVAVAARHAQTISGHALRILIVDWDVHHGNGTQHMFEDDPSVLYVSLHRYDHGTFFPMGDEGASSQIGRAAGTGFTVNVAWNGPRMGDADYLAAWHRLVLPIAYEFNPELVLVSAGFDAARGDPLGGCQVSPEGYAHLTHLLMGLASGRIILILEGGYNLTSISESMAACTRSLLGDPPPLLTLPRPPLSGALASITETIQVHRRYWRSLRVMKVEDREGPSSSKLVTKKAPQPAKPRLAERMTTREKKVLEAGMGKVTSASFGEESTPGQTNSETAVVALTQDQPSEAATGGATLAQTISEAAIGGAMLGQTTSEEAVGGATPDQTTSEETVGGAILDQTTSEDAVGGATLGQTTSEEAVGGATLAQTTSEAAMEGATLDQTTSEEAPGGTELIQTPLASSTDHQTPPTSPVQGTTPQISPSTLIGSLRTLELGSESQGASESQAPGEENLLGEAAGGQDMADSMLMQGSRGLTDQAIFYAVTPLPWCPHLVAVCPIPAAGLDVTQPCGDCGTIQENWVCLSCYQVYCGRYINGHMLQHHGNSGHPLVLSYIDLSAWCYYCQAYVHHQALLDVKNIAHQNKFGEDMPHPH

Cholinesterase [17] = molecular target: T4, Cholinesterase; experiment: Inhibition of human BChE using butyrylthiocholine iodide as substrate preincubated for 15 min followed by substrate addition measured after 40 min by Ellman's method
Cholinesterase [18] = molecular target: T4, Cholinesterase; experiment: Binding affinity to BChE (unknown origin) assessed as inhibition constant
Acetylcholinesterase [19] = molecular target: T3, Acetylcholinesterase; experiment: Binding affinity to AChE (unknown origin) assessed as inhibition constant
[20] = Inhibition of equine serum BChE using butyrylthiocholine iodide as substrate by Ellman's method; design: species or system Equus caballus
Acetylcholinesterase [21] = molecular target: T1, Acetylcholinesterase; experiment: Inhibition of Electric eel AChE using […] as substrate by spectrophotometry based Ellman's method

O=C(CNCCCCNCC(=O)Nc1c2c(nc3c1CCC3)CCCC2)Nc1c2c(nc3c1CCC3)CCCC2
Ratio IC50 [1]: 22

CCCCCCNC(=O)Oc1ccc2[nH]cc(CCNC(=O)c3ccccc3Nc3ccccc3)c2c1
Ratio IC50 [2]: > 14300 | pIC50 (Acetylcholinesterase [3]): < 4.00 | pIC50 (Cholinesterase [4]): 8.15

CCN(C)C(=O)Oc1ccc(CCCNC(=O)c2cccc3[nH]c(-c4ccccc4O)nc23)cc1
inhibition [5]: 60.8%

COc1cc(CNCCCNc2c3c(nc4ccccc24)CCCCC3)ccc1O
pIC50 (Acetylcholinesterase [6]): 5.52 | pIC50 (Cholinesterase [7]): 6.45

CC(C)N(Cc1ccccc1)C(=O)/C=C/C=C/c1ccc2c(c1)OCO2
pIC50 (Cholinesterase [8]): 5.34 | pIC50 (Acetylcholinesterase [9]): < 3.00

CC(C)(C)c1cc(CNCCNc2c3c(nc4ccccc24)CCCCC3)cc(C(C)(C)C)c1O
Ratio IC50 [10]: 23

CCC(CC)CN[C@H](Cc1c[nH]c2ccccc12)C(=O)NCCN1CCc2ccccc2C1
pIC50 (Cholinesterase [11]): 6.52 | pIC50 (Acetylcholinesterase [3]): < 5.00

CCCCCCNC(=O)Oc1ccc2c(c1)CN1CCc3ccc(/N=N/c4ccccc4)cc3C1N2C (centres undefined)
inhibition (Acetylcholinesterase [12]): 28.5%

COc1ccc2c(c1)CC/C(=C\c1ccc[n+](Cc3ccc(Br)cc3)c1)C2=O
pIC50 (Cholinesterase [8]): 6.05 | pIC50 (Acetylcholinesterase [9]): 4.75

NNc1nc(NN)nc(NCCNC(=O)c2cc3c([nH]c4ccccc43)c(-c3ccccc3)n2)n1
pIC50 (Cholinesterase [4]): 6.00 | inhibition [13]: 29.5%

O=C(Nc1ccccc1Cl)C(NS(=O)(=O)c1ccccc1)c1ccccc1 (centres undefined)
inhibition [14]: 1.62% | pIC50 (Cholinesterase [4]): 5.13

Nc1c2c(nc3ccccc13)CCC2
pIC50 (Acetylcholinesterase [15]): 5.36 | pIC50 (Cholinesterase [4]): 6.57

CCN(CC)Cc1ccccc1CNC(=O)c1cccc(NC(=O)c2cccc(NC(=O)CCCCCCC(=O)NO)c2)c1
pIC50 [16]: 8.05 | pIC50 (Cholinesterase [17]): 8.40

O=C(Oc1cc(OC(=O)N2CCCCC2)cc(C(O)CN2CCCCC2)c1)N1CCCCC1 (centres undefined)
pKi (Cholinesterase [18]): 7.96 | pKi (Acetylcholinesterase [19]): 5.16

Cc1ccc(-c2nc3cc(C(=O)Nc4ccc(O)cc4)ccc3[nH]2)cc1
pIC50 [20]: 5.95 | pIC50 (Acetylcholinesterase [21]): < 4.00

c1ccc(CN2CCC(NCCCCCCn3c4ccccc4c4ccccc43)CC2)cc1
pIC50 (Acetylcholinesterase [3]): 4.58 | pIC50 (Cholinesterase [4]): 6.74

O=C(NCCCCCCNc1c2c(nc3ccccc13)CCCC2)c1ccccc1O
pIC50 (Acetylcholinesterase [6]): 7.70 | pIC50 (Cholinesterase [4]): 8.00

CON(C)C(=O)Oc1cc(C)ccc1C(=O)NCCc1c[nH]c2ccc(Cl)cc12
Ratio IC50 [2]: > 1750 | pIC50 (Acetylcholinesterase [3]): < 4.00 | pIC50 (Cholinesterase [4]): 7.24
